# Source: patent US20260131003A1, “Method and kit for treating skin infections” (Koite Health Oy, priority 2020, published 2026)
# Test system: Staphylococcus aureus biofilm
# Experiment: Monospecies S. aureus biofilm model, light exposure after ICG incubation, CFU counting
# Assay type: cell-based
# Details: for reduction in bacterial counts: three-day maturated biofilm
# Procedure: Monospecies S. Aureus biofilm model experiments were performed to study the effect of single, or recurring application of dual-light aPDT or its parts during the biofilm formation process. Flat-bottom Nunclon Delta well plates (Thermo Fisher Scientific Inc, US), were used, and the biofilm experiments were divided into different setups based on maturation age and the therapy given.
# Applications of both single- and dual-light therapies were scheduled to mimic the daily use of antibacterial light therapy. The total amount of […] as kept unchanged in different treatment protocols, and the concentration of the ICG photosensitizer (if given) were identical. In the first setting, S. aureus biofilm was incubated for either one day or three days, and a single dose of light with ICG was applied at the end of the growth period. In the second setting, the biofilm was incubated for either three days or six days, and a daily dose of light ICG with was applied during incubation. In each setting, the last treatment was followed by plating onto brain heart infusion (BHI)-agar dishes for colony-forming unit (CFU) counting.
# Staphylococcus Aureus bacteria were grown for 18 h in an incubator (NuAire DH autoflow 5500, NuAire inc, US), at +36 degrees C, 5% CO2 in BHI broth (Bio-Rad 3564014, Bio-Rad Laboratories, Inc, US). The resulting bacterial suspension was diluted with a 0.9% NaCl solution until an optical density (OD) of 0.46 was reached. The optical density was measured by a spectrophotometer (Varian Cary 100 Bio UV-VIS, Agilent Technologies, Inc, US), and then with a Den 1 McFarland Densitometer (Biosan, Riga, Latvia).
# Biofilms were grown in flat-bottom 96-well plates (Thermo Fisher Scientific Inc, US) by placing 100 μl of 0.46 OD S. aureus suspension in each well, with 100 μl of BHI-broth growth medium. The well plates were then incubated in a growth chamber (36° C., 5% CO^2). The BHI-broth medium was changed daily to supply fresh growth medium and to wash away the debris. The change of the medium in each well was performed by removing 100 μl of the medium and replacing it with a similar amount of fresh BHI broth.
# Before the light exposure took place, the growth medium was meticulously removed by pipetting and subsequently replaced with an equal amount of indocyanine green solution (Verdye, Diagnostic Green, GmBH), tittered to a concentration of 250 μg/ml. The indocyanine green was left to incubate at room temperature and in the dark for 10 minutes. After this incubation period, the biofilm was washed with a 0.9% NaCl solution. Then, the 0.9% solution of NaCl was added to each well to reach a total volume of 200 μl.
# Light exposure was performed using specific, custom-made LED light sources (Lumichip Oy, Espoo, Finland). The exposure time was calculated from the determined light amount and known irradiances, which had been previously measured with a light energy meter (Thorlabs PM 100D with S121C sensor head, Thorlabs Inc, US) and a spectroradiometer (BTS256, Gigahertz-Optik GmbH, Germany), respectively. After the exposure, the BHI broth was changed and the plates were placed in the incubator, or, if the light exposure was final, the biofilm was scraped for CFU counting, as described below. Excitation lights were applied with two single-wave LED light sources with peak intensities at 810 nm or at 405 nm, and with a dual-wave LED light chip simultaneously producing two separate peak intensities at 405 nm and at 810 nm.
# Antibacterial photodynamic therapy light exposure was administered at an 810-nm peak wavelength LED array on top of the well plate. The resulting light irradiance was 100 mW/cm^2, and the provided light energy was 100 J/cm^2. Antibacterial blue light was administered at a 405-nm peak wavelength LED array, with a resulting irradiance of 80 mW/cm^2, and resulting light energy of 100 J/cm^2. […]
compound,measurement,setting,value
"CC1(C)C(/C=C/C=C/C=C/C=C2\N(CCCCS(=O)(=O)O)c3ccc4ccccc4c3C2(C)C)=[N+](CCCCS(=O)(=O)[O-])c2ccc3ccccc3c21 [ICG, indocyanine green]",antibacterial effectivity by dual-light relative energy ratio,"1/4 NIR (810 nm) to 3/4 aBL (405 nm) compared with 1/1 and 3/4 NIR to 1/4 aBL, largest difference in 6-day daily treated biofilm",most effective
same,antibacterial efficacy of simultaneous ICG/810-nm aPDT and 405-nm aBL versus single-light aPDT or aBL,"S. aureus biofilm, overall conclusion",significantly improved antibacterial efficacy
same,antibacterial efficiency of dual-light aPDT versus single light (CFU count),"one-day biofilm, single dose, ICG 250 μg/ml, 405 nm + 810 nm simultaneously, total 100 J/cm^2",significantly more efficient than single-light aBL or aPDT
same,antibacterial effect (CFU count),"one-day biofilm, single light dose, ICG 250 μg/ml, all modalities (single-light aPDT 810 nm, dual-light aPDT)",bactericidal
same,reduction in bacterial counts,"single exposure of aPDT (ICG 250 μg/ml, 810 nm, 100 J/cm^2)",four
same,reduction in bacterial counts,"single exposure of dual-light aPDT (ICG 250 μg/ml, 405 nm + 810 nm)",four
